Experimental data published in patent US20250114486A1, “MARKED FATTY ACID DERIVATIVE, PRECURSOR COMPOUND THEREOF, AND USE THEREOF IN CONTRAST AGENT” (BEIJING NORMAL UNIVERSITY, priority 2022, published 2025).

Assay: In vivo biodistribution of radioactive ^99mTc complexes in female SD rats
Set-up: species or system female Sprague-Dawley (SD) rats
Details: for Biodistribution: Large Intestine / Biodistribution: Small Intestine / Biodistribution: Stomach: unit % ID
Method: Female SD rats (180-220 g, n=3) were fasted for 12 h before the experiment, and the purified radioactive 99mTc complexes 78-81 were prepared into physiological saline (containing 10% ethanol) solutions of about 250-350 μCi/mL. 200 μL of the above solution was injected into the tail vein of female SD rats, and the rats were killed by cervical dislocation at five time points, 15, 30, 60, 120 and 240 min after the tail vein injection. The blood, brain, heart, liver, spleen, lung, kidney, muscle, bone, large intestine, small intestine, stomach and tail were collected, weighed and counted, and the count distribution of each tissue and organ was calculated (unit: % ID/g, the unit of large intestine, small intestine and stomach is % ID), and the data are the mean±standard deviation of three mice in each phase. At the same time, 200 μL of the above solution was diluted to 20 mL, which was used as the % ID without deducting the tail count.

## COC(C)(C)C[N+]#[C][99Tc-5]([C]#[N+]CC(C)(C)OC)([C]#[N+]CC(C)(C)OC)([C]#[N+]CC(C)(C)OC)([C]#[N+]CC(C)(C)OC)[C]#[N+]CC(C)(C)OCCCCCCSCCCCC(=O)O [^99mTc complex 81]
  myocardial absolute uptake peak value (assessment): close to the corresponding value of myocardial perfusion imaging agent ^99mTc-MIBI
15 min post-injection
  Biodistribution: Blood: 0.018 ± 0.001 ID %/g
  Biodistribution: Bone: 0.24 ± 0.05 ID %/g
  Biodistribution: Heart: 3.37 ± 0.15 ID %/g
  Biodistribution: Kidney: 9.30 ± 0.20 ID %/g
  Biodistribution: Liver: 1.79 ± 0.26 ID %/g
  Biodistribution: Lungs: 0.86 ± 0.17 ID %/g
  Biodistribution: Muscle: 0.72 ± 0.11 ID %/g
  Biodistribution: Spleen: 0.70 ± 0.06 ID %/g
  Heart-to-Blood ratio: 192.24 ± 13.25
  Heart-to-Liver ratio: 1.93 ± 0.26
  Heart-to-Lungs ratio: 4.44 ± 0.26
  absolute myocardial uptake value: 3.37±0.15 % ID/g
  Biodistribution: Large Intestine: 6.53 ± 0.73 % ID
  Biodistribution: Small Intestine: 12.23 ± 2.35 % ID
  Biodistribution: Stomach: 1.05 ± 0.04 % ID
30 min post-injection
  Biodistribution: Blood: 0.016 ± 0.002 ID %/g
  Biodistribution: Bone: 0.15 ± 0.01 ID %/g
  Biodistribution: Heart: 3.45 ± 0.19 ID %/g
  Biodistribution: Kidney: 5.21 ± 1.54 ID %/g
  Biodistribution: Liver: 1.11± 0.16 ID %/g
  Biodistribution: Lungs: 0.575 ± 0.002 ID %/g
  Biodistribution: Muscle: 0.37 ± 0.06 ID %/g
  Biodistribution: Spleen: 0.88 ± 0.13 ID %/g
  Heart-to-Blood ratio: 220.61±45.73
  Heart-to-Liver ratio: 3.30 ± 0.42
  Heart-to-Lungs ratio: 6.00 ± 0.31
  absolute myocardial uptake value: 3.45±0.19 % ID/g
  Biodistribution: Large Intestine: 14.01 ± 1.87 % ID
  Biodistribution: Small Intestine: 17.82 ± 0.19 % ID
  Biodistribution: Stomach: 0.65 ± 0.11 % ID
60 min post-injection
  Biodistribution: Blood: 0.009 ± 0.001 ID %/g
  Biodistribution: Bone: 0.14 ± 0.01 ID %/g
  Biodistribution: Heart: 3.98 ± 0.25 ID %/g
  Biodistribution: Kidney: 4.90 ± 0.17 ID %/g
  Biodistribution: Liver: 0.60 ± 0.12 ID %/g
  Biodistribution: Lungs: 0.28 ± 0.07 ID %/g
  Biodistribution: Muscle: 0.77 ± 0.13 ID %/g
  Biodistribution: Spleen: 0.34 ± 0.04 ID %/g
  Heart-to-Blood ratio: 449.52±67.26
  Heart-to-Lungs ratio: 14.35 ± 2.38
  absolute myocardial uptake value: 3.98±0.25 % ID/g
  Biodistribution: Large Intestine: 6.44 ± 0.70 % ID
  Biodistribution: Small Intestine: 15.98 ± 1.55 % ID
  Biodistribution: Stomach: 0.46 ± 0.11 % ID
120 min post-injection
  Biodistribution: Blood: 0.020 ± 0.004 ID %/g
  Biodistribution: Bone: 0.12 ± 0.01 ID %/g
  Biodistribution: Heart: 2.83 ± 0.25 ID %/g
  Biodistribution: Kidney: 4.03 ± 0.24 ID %/g
  Biodistribution: Liver: 0.36 ± 0.05 ID %/g
  Biodistribution: Lungs: 0.27 ± 0.03 ID %/g
  Biodistribution: Muscle: 0.60 ± 0.11 ID %/g
  Biodistribution: Spleen: 0.25 ± 0.04 ID %/g
  Heart-to-Blood ratio: 146.14±22.27
  Heart-to-Liver ratio: 7.91 ± 0.50
  Heart-to-Lungs ratio: 10.43 ± 0.62
  absolute myocardial uptake value: 2.83±0.25 % ID/g
  Biodistribution: Large Intestine: 19.30 ± 1.11 % ID
  Biodistribution: Small Intestine: 24.46 ± 3.26 % ID
  Biodistribution: Stomach: 0.92 ± 0.03 % ID
240 min post-injection
  Biodistribution: Blood: 0.016 ± 0.002 ID %/g
  Biodistribution: Bone: 0.036 ± 0.005 ID %/g
  Biodistribution: Heart: 2.29 ± 0.05 ID %/g
  Biodistribution: Kidney: 2.07 ± 0.17 ID %/g
  Biodistribution: Liver: 0.17 ± 0.03 ID %/g
  Biodistribution: Lungs: 0.15 ± 0.02 ID %/g
  Biodistribution: Muscle: 0.48 ± 0.06 ID %/g
  Biodistribution: Spleen: 0.12 ± 0.02 ID %/g
  Heart-to-Blood ratio: 143.42±25.82
  Heart-to-Liver ratio: 11.82 ± 1.15
  Heart-to-Lungs ratio: 15.97 ± 2.41
  absolute myocardial uptake value: 2.29±0.05 % ID/g
  Biodistribution: Large Intestine: 27.81 ± 4.20 % ID
  Biodistribution: Small Intestine: 13.00 ± 1.55 % ID
  Biodistribution: Stomach: 0.30 ± 0.08 % ID
Peak at 60 min post-injection
  absolute myocardial uptake peak value: 3.98±0.25 % ID/g
